As usually defined, the IC50 is the concentration needed to halve the response being measured.

Each structure is given as a SMILES string.

Results on eight compounds are retold here after US4702864A, “Analogs of platelet activating factor” (E. I. Du Pont de Nemours and Company, priority 1986, dated 1987).

Assay [1] deals with spontaneous hypertensive rat (SHR). Kind of assay: Antihypertensive activity in the spontaneous hypertensive rat (SHR), intravenous. Set-up: key to Blood pressure response: ++: Pronounced decrease in blood pressure (>50 mm Hg); +: Moderate decrease in blood pressure (35-50 mm Hg); ±: Threshold decrease in blood pressure (25-35 mm Hg); NE: No effect observed. Type of assay: in vivo. To be noted: for Blood pressure response: SHR. As for the experimental part: In this procedure, anesthetized rats were dosed intravenously with graded dose levels the test compound on a cumulative dose schedule. The test compound was administered in an aqueous 0.25% methylcellulose vehicle at a volume to body weight ratio of 1 mL/kg. Arterial blood pressure was continuously recorded directly through an arterial cannula and a polygraph. That dose of compound producing a reduction in mean blood pressure of 30 mm Hg, or ED30, was then determined. In this manner, an ED30 of 2.00 mg/kg was determined for compound 13BII.
The antihypertensive activity of other compounds within the scope of the present invention was determined by methods substantially similar to those reported in Example 2, above, except that intravenous dosage levels of 2 and 12 mg/kg were employed. The designation "prolonged" indicates a hypotensive response lasting from 15-30 minutes. The following designations are employed to indicate the magnitude of hypotensive response: […]

The subject of assay [2] is tetradecanoyl phorbol acetate (TPA)-induced edema in murine ear. Kind of assay: Topical anti-inflammatory activity, TPA-induced mouse ear edema. Type of assay: in vivo, male CF1 mice. The settings on record: in acetone just prior to 1 μg TPA, 4 hours after TPA. Here is the method: Topical application of tetradecanoyl phorbol acetate (TPA) to murine skin results in an inflammatory reaction characterized by edema, a dense cellular infiltration 4-6 hours later, and an epidermal hyperplasia 24 hours following application.
To evaluate the antiinflammatory activity of certain compounds within the scope of the present invention, TPA was applied topically to ear epidermal tissue of male CF1 mice 4-6 weeks old. One μg of TPA in acetone was applied topically to one ear, while acetone only was applied to the contralateral ear of each mouse. Test compounds to be evaluated as antiinflammatory agents were applied to both ears in acetone just prior to application of TPA. Four hours after the application of the TPA, the animals were sacrificed, and 6 mm disks of tissue were excised from each treated ear and weighed. The relative amount of edema was then assessed by determining the difference in mass between control and TPA-treated tissue samples.

In the next assay the target is porcine pancreatic PLA2 (Sus scrofa, UniProt P00592). The assay is described as follows: Inhibition of porcine pancreatic phospholipase A2 (PLA2). Type of assay: biochemical. The settings on record: pH 8.5, 37°, 5 minutes, 14.0 uM substrate; approximation from semilog plot. As for the experimental part:
Inhibition of porcine pancreatic PLA2 was measured by a modification of the assay used by Hirata et al., Proc. Natl. Acad. Sci. USA 77:533 (1980). The enzyme-substrate reaction was run in a total volume of 0.1 mL with the enzyme at a final concentration of 19 units/mL (0.025 ug protein/mL) which gave approximately 4000-8000 dpm of activity in a buffer containing 25 mM Tris, 25 mM glycylglycine, 25 mM CaCl2 and 0.75 mM EDTA (tetra sodium salt), pH 8.5. Compounds to be tested as inhibitors were added to an aliquot of enzyme and incubated for 2 minutes, and then the substrate, [arachidonyl-1-^14 C] L-1-palmitoyl-2-arachidonyl phosphatidylcholine was added to provide a final concentration of 14.0 uM (80,000 dpm). The reaction was allowed to proceed for five minutes at 37°, and then halted by freezing the mixture in a dry ice-ethanol slurry. The arachidonic acid product was separated from unreacted substrate using silica gel columns.
All reactions were run in duplicate. Compounds to be tested were dissolved in 0.2M Tris-Cl, pH 8.5 or dissolved in DMSO and then diluted with Tris-Cl buffer (maximum DMSO concentration, 7%). An approximation of IC50 (the concentration of compound which inhibits the phospholipase activity by 50 percent) was determined for each compound from a semilog plot of percent inhibition versus the final inhibitor concentration.

Chain of porcine pancreatic PLA2 (P00592 23-146): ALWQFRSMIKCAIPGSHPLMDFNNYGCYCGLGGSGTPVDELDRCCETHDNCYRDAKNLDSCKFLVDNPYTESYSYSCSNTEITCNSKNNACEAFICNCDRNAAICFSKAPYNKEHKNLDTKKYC

As to `CCCCCCCCCCCCCCCCCCSCC(COP(=O)([O-])OCC[N+](C)(C)C)NC(C)=O` (stereo not shown) [Compound 10B, 3-Octadecylthio-2-acetamidophosphatidylcholine], the Blood pressure response result in assay [1] (2 mg/kg) is “++ (Pronounced decrease in blood pressure (>50 mm Hg))”. Moreover, the “Ear Volume Reduction (%)” value in assay [2] worked out at 10%. The compound further yielded an IC50 against porcine pancreatic PLA2 of 0.52 µM.
As for `CCCCCCCCCCCCCCCCSCC(COP(=O)([O-])OCC[N+](C)(C)C)NC(C)=O` (stereo not shown) [Compound 10C], on porcine pancreatic PLA2, the concentration for half-maximal inhibition (IC50) was determined as 1.1 µM.
Take `CCCCCCCCSCC(COP(=O)([O-])OCC[N+](C)(C)C)NC(C)=O` (stereo not shown) [Compound 10D]: the Blood pressure response result is “NE” in assay [1] (2 mg/kg) and “++ (Pronounced decrease in blood pressure (>50 mm Hg))” in assay [1] (12 mg/kg). The compound also came in with an IC50 against porcine pancreatic PLA2 of 9 µM.
The compound `CCCCCCSCC(COP(=O)([O-])OCC[N+](C)(C)C)NC(C)=O` (stereo not shown) [Compound 10E] returned an IC50 at porcine pancreatic PLA2 of 98 µM.
Regarding `CCCCCCCCCCCCCCCCCCSCC(COP(=O)([O-])OCC[N+](C)(C)C)NC(=O)OC` (stereo not shown) [Compound 13BII, 3-octadecylthio-2-carbomethoxyamidophosphatidylcholine], the ED (30 mm Hg) in assay [1] (Rattus norvegicus, anesthetized SHR, cumulative dose schedule, aqueous 0.25% methylcellulose, read-out: ED30 (dose of compound producing a reduction in mean blood pressure of 30 mm Hg)) was found to be 2 mg/kg. The figures for the Blood pressure response entry in assay [1] (2 mg/kg) and in assay [1] (12 mg/kg) were “± (Threshold decrease in blood pressure (25-35 mm Hg))” and “++ (Pronounced decrease in blood pressure (>50 mm Hg))”, respectively. Also, the 50% inhibitory concentration (IC50) against porcine pancreatic PLA2 was found to be 19 µM.
On porcine pancreatic PLA2, `CCCCCCCCCCCCCCCCCCSCC(COP(=O)([O-])OCC[N+](C)(C)C)NC(=O)CCCCCCCCCCCCCCCCC` (stereo not shown) [Compound 13BI] showed a concentration for half-maximal inhibition (IC50) of 0.55 µM.
As for `CCCCCCCCCCCCCCCCSCC(COP(=O)([O-])OCC[N+](C)(C)C)NC(=O)OC` (stereo not shown) [Compound 13CII], the Blood pressure response entry in assay [1] (2 mg/kg) is “++ (Pronounced decrease in blood pressure (>50 mm Hg))”. This compound also came in with a 50% inhibitory concentration (IC50) against porcine pancreatic PLA2 of 18 µM.
As for `CCCCCCCCCCCCCCCCSCC(COP(=O)([O-])OCC[N+](C)(C)C)NC(=O)c1ccccc1` (stereo not shown) [Compound 13CIV], the Blood pressure response entry in assay [1] (2 mg/kg) is recorded as “NE”; in assay [1] (12 mg/kg) it was “± (Threshold decrease in blood pressure (25-35 mm Hg))”. The “Ear Volume Reduction (%)” value in assay [2] was determined as 57%. In addition, the IC50 on porcine pancreatic PLA2 amounted to 1.4 µM.
